The source made the active and inactive calls. No cut-off for these calls is given here.
Tests used:
OVCAR-8 = experiment: Growth inhibition of human OVCAR8 cells at 10 uM after 48 hrs by SRB assay relative to control; type: functional; details: for inhibition of growth at 10 µM: OVCAR-8, 48 h, read-out: GI
K562 = experiment: Growth inhibition of human K562 cells at 10 uM after 48 hrs by SRB assay relative to control; type: functional; details: K562, 48 h, read-out: GI
RPMI-8226 = experiment: Growth inhibition of human RPMI8226 cells at 10 uM after 48 hrs by SRB assay relative to control; type: functional; details: RPMI-8226, 48 h, read-out: GI
HL-60 = experiment: Growth inhibition of human HL60 cells at 10 uM after 48 hrs by SRB assay relative to control; type: functional
A549 = experiment: Growth inhibition of human A549 cells at 10 uM after 48 hrs by SRB assay relative to control; type: functional; details: for inhibition of growth at 10 µM: A549, 48 h, read-out: GI
NCI-H226 = experiment: Growth inhibition of human NCI-H226 cells at 10 uM after 48 hrs by SRB assay relative to control; type: functional; details: for inhibition of growth at 10 µM: NCI-H226, 48 h, read-out: GI
NCI-H23 = experiment: Growth inhibition of human NCI-H23 cells at 10 uM after 48 hrs by SRB assay relative to control; type: functional; details: NCI-H23, 48 h, read-out: GI
NCI-H322M = experiment: Growth inhibition of human NCI-H322M cells at 10 uM after 48 hrs by SRB assay relative to control; type: functional; details: read-out: GI
HCT-116 = experiment: Growth inhibition of human HCT116 cells at 10 uM after 48 hrs by SRB assay relative to control; type: functional; details: for inhibition of growth at 10 µM: HCT-116, 48 h, read-out: GI
KM12 = experiment: Growth inhibition of human KM12 cells at 10 uM after 48 hrs by SRB assay relative to control; type: functional; details: KM12, 48 h, read-out: GI
SF-268 = experiment: Growth inhibition of human SF268 cells at 10 uM after 48 hrs by SRB assay relative to control; type: functional; details: SF-268, 48 h, read-out: GI
SNB-19 = experiment: Growth inhibition of human SNB19 cells at 10 uM after 48 hrs by SRB assay relative to control; type: functional; details: for inhibition of growth at 10 µM: SNB-19, 48 h, read-out: GI
SNB-75 = experiment: Growth inhibition of human SNB75 cells at 10 uM after 48 hrs by SRB assay relative to control; type: functional; details: SNB-75, 48 h, read-out: GI
LOX IMVI = experiment: Growth inhibition of human LOXIMVI cells at 10 uM after 48 hrs by SRB assay relative to control; type: functional; details: read-out: GI
UACC-62 = experiment: Growth inhibition of human UACC62 cells at 10 uM after 48 hrs by SRB assay relative to control; type: functional; details: UACC-62, 48 h, read-out: GI
OVCAR-3 = experiment: Growth inhibition of human OVCAR3 cells at 10 uM after 48 hrs by SRB assay relative to control; type: functional; details: for inhibition of growth at 10 µM: OVCAR-3, 48 h, read-out: GI
NCI/ADR-RES = experiment: Growth inhibition of human NCI/ADR-RES cells at 10 uM after 48 hrs by SRB assay relative to control; type: functional; details: read-out: GI
A498 = experiment: Growth inhibition of human A498 cells at 10 uM after 48 hrs by SRB assay relative to control; type: functional; details: A498, 48 h, read-out: GI
RXF 393 = experiment: Growth inhibition of human RXF393 cells at 10 uM after 48 hrs by SRB assay relative to control; type: functional; details: for inhibition of growth at 10 µM: RXF 393, 48 h, read-out: GI
UO-31 = experiment: Growth inhibition of human UO31 cells at 10 uM after 48 hrs by SRB assay relative to control; type: functional; details: UO-31, 48 h, read-out: GI
MCF7 = experiment: Growth inhibition of human MCF7 cells at 10 uM after 48 hrs by SRB assay relative to control; type: functional; details: MCF7, 48 h, read-out: GI
Hs-578T = experiment: Growth inhibition of human Hs 578T cells at 10 uM after 48 hrs by SRB assay relative to control; type: functional; details: for inhibition of growth at 10 µM: read-out: GI
MDA-MB-468 = experiment: Growth inhibition of human MDA-MB-468 cells at 10 uM after 48 hrs by SRB assay relative to control; type: functional; details: for inhibition of growth at 10 µM: MDA-MB-468, 48 h, read-out: GI
[1] = Cytotoxicity against human MCF10A cells after 24 hrs by MTT assay; type: cell-based, MCF-10A; details: read-out: LC50
[2] = target: T1, M-phase inducer phosphatase 1 (Homo sapiens, UniProt P30304); experiment: Inhibition of human CDC25A using OMFP as substrate after 15 mins by fluorescence assay
T1 sequence (P30304 whole entry): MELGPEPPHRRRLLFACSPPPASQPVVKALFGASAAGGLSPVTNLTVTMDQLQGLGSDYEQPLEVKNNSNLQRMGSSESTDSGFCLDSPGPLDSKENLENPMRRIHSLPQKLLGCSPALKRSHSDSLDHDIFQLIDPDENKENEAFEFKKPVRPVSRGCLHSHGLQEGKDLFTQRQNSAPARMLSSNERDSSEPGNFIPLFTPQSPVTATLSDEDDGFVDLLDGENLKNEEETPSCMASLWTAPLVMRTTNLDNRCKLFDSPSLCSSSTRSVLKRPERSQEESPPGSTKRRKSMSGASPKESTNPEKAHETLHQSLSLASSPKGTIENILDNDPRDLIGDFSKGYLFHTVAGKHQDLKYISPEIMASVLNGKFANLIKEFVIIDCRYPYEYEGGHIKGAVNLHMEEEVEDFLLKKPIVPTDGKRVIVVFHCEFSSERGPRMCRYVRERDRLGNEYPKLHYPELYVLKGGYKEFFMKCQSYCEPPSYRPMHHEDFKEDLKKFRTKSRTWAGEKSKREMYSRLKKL

[3] = target: T2, M-phase inducer phosphatase 2 (Homo sapiens, UniProt P30305); experiment: Inhibition of human CDC25B using OMFP as substrate after 15 mins by fluorescence assay
T2 sequence (P30305 whole entry): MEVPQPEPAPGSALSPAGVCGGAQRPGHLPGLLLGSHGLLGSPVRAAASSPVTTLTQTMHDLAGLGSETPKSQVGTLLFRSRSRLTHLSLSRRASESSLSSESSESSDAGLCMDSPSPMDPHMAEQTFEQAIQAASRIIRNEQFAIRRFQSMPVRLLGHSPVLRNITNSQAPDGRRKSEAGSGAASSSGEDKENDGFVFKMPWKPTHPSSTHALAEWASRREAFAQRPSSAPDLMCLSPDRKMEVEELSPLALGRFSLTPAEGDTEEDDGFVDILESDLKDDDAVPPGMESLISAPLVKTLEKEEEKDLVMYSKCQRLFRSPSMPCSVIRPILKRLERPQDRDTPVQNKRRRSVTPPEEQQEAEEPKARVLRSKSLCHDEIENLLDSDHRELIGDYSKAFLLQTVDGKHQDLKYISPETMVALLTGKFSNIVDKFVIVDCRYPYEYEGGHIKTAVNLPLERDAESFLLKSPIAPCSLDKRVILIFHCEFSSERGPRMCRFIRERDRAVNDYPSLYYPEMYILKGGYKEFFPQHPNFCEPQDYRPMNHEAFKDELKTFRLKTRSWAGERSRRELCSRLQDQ

SMILES | inhibition of growth at 10 µM (K562) [%] | inhibition of growth at 10 µM (RPMI-8226) [%] | growth inhibition (GI) (HL-60) | inhibition of growth at 10 µM (NCI-H23) [%] | inhibition of growth at 10 µM (NCI-H322M) [%] | inhibition of growth at 10 µM (KM12) [%] | inhibition of growth at 10 µM (SF-268) [%] | inhibition of growth at 10 µM (SNB-19) [%] | inhibition of growth at 10 µM (SNB-75) [%] | inhibition of growth at 10 µM (LOX IMVI) [%] | inhibition of growth at 10 µM (UACC-62) [%] | inhibition of growth at 10 µM (NCI/ADR-RES) [%] | inhibition of growth at 10 µM (A498) [%] | inhibition of growth at 10 µM (UO-31) [%] | inhibition of growth at 10 µM (MCF7) [%] | CC50 at 24 h [1] [µM] | IC50 [2] [µM] | IC50 [3] [µM] | inhibition of growth at 10 µM (A549) [%] | inhibition of growth at 10 µM (NCI-H226) [%] | other results
COc1ccc(Cc2nnc(SCC(=O)Nc3ccc(Cl)cc3)n2-c2ccccc2)cc1 | 25 | 20.6 | inactive | 8.87 | 8.75 | 14.5 | 12.6 | 3 | 8.27 | 11.9 | 18.8 | 11.4 | 15.5 | 27.2 | 4.1 | > 100 | 32.9 | 22.5 | – | – | growth inhibition (GI) (OVCAR-8): inactive; growth inhibition (GI) (A549): inactive; growth inhibition (GI) (NCI-H226): inactive; inhibition of growth at 10 µM (HCT-116): 2%; growth inhibition (GI) (OVCAR-3): inactive; inhibition of growth at 10 µM (RXF 393): 3.85%; growth inhibition (GI) (Hs-578T): inactive; growth inhibition (GI) (MDA-MB-468): inactive
COc1ccc(Cc2nnc(SCC(=O)c3ccc(Cl)cc3)n2-c2ccc(C)cc2)cc1 | 53.5 | 25 | – | 5.6 | 4 | 7.12 | 1.22 | – | 11.4 | 1.19 | 5.42 | 12 | 46 | 14 | 8.76 | > 100 | 20.5 | 17.3 | 4.54 | 3 | inhibition of growth at 10 µM (OVCAR-8): 1.7%; inhibition of growth at 10 µM (HL-60; HL-60, 48 h, read-out: GI): 26.4%; growth inhibition (GI) (HCT-116): inactive; growth inhibition (GI) (SNB-19): inactive; inhibition of growth at 10 µM (OVCAR-3): 4.28%; growth inhibition (GI) (RXF 393): inactive; growth inhibition (GI) (Hs-578T): inactive; inhibition of growth at 10 µM (MDA-MB-468): 11%
COc1ccc(Cc2nnc(SCC(=O)c3ccc(Cl)cc3)n2Cc2ccccc2)cc1 | 29.2 | 26.4 | inactive | 13.6 | 26 | 10 | 11.8 | 9.2 | 14.4 | 6.87 | 14.8 | 21.5 | 35.2 | 34.7 | 10 | > 100 | 11.4 | 6.7 | 16.5 | 10 | inhibition of growth at 10 µM (OVCAR-8): 10%; inhibition of growth at 10 µM (HCT-116): 11.6%; inhibition of growth at 10 µM (OVCAR-3): 18.4%; inhibition of growth at 10 µM (RXF 393): 16%; inhibition of growth at 10 µM (Hs-578T): 20%; inhibition of growth at 10 µM (MDA-MB-468): 16%
COc1ccc(Cc2nnc(SCC(=O)c3ccc(Cl)cc3)n2-c2ccccc2)cc1 | 26.7 | 13.7 | inactive | 8.1 | 8.4 | 5.87 | 3.38 | 5 | 12.8 | 3.4 | 13.7 | 10.3 | 24.5 | 20.1 | 6.26 | > 100 | 30.7 | 20.1 | 4.57 | 4 | growth inhibition (GI) (OVCAR-8): inactive; growth inhibition (GI) (HCT-116): inactive; inhibition of growth at 10 µM (OVCAR-3): 4.64%; inhibition of growth at 10 µM (RXF 393): 2%; inhibition of growth at 10 µM (Hs-578T): 3.43%; inhibition of growth at 10 µM (MDA-MB-468): 8.55%
COc1ccc(Cc2nnc(SCC(=O)Nc3ccc(Cl)cc3)n2Cc2ccccc2)cc1 | 34.5 | 22.5 | inactive | 9 | 14.5 | 16.7 | 12 | 6.27 | 4 | 12.2 | 38 | 14.3 | 16 | 31.7 | 11.1 | > 100 | 14.1 | 8.4 | 1.05 | 4.45 | growth inhibition (GI) (OVCAR-8): inactive; inhibition of growth at 10 µM (HCT-116): 11%; inhibition of growth at 10 µM (OVCAR-3): 3%; growth inhibition (GI) (RXF 393): inactive; inhibition of growth at 10 µM (Hs-578T): 2.82%; growth inhibition (GI) (MDA-MB-468): inactive

Reference: ChEMBL document CHEMBL4190322, “Structure-based development of novel triazoles and related thiazolotriazoles as anticancer agents and Cdc25A/B phosphatase inhibitors. Synthesis, in vitro biological evaluation, molecular docking and in silico ADME-T studies” (Eur J Med Chem, 2017)
